US20260355196A1, “INHIBITORS AND DEGRADERS OF PIP4K PROTEIN” (Larkspur Biosciences, Inc., priority 2023, published 2026)

What follows are molecules tested against T1, PIP4K2C (Homo sapiens, UniProt Q8TBX8) (assay: HiBiT PIP4K2C degradation assay in MOLT-4 cells (endogenous PIP4K2C C-terminally tagged with HiBiT)). Conditions: 6 hours of incubation time, rather than 24 hours; MOLT-4, top concentration 10 micromolar; read-out: HiBIT-degradation MOLT4 PIP4k2C DC50 (6 hours, marked *).
T1 sequence (Q8TBX8 1-421): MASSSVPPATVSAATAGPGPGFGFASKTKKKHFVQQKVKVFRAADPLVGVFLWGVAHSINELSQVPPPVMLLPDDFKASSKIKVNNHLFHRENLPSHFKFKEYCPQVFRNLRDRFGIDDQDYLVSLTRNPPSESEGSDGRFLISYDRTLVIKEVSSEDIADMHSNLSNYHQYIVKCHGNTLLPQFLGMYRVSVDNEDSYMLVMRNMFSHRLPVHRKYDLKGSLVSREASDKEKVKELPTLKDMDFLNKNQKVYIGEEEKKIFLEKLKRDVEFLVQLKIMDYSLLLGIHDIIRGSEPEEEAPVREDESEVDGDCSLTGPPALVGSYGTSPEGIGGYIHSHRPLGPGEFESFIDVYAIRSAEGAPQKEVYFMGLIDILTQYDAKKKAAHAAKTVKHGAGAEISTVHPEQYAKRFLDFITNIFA
Type: cell-based
Design: untagged in primary human PBMCs and monocyte-derived dendritic cells
Summary of the method: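 Cells are plated onto compound dilutions (10 points, 3-fold, top 10 micromolar) and incubated 24 or 6 hours at 37 C. Lytic HiBiT detection then quantifies tagged endogenous PIP4K2C in MOLT-4, and a Hill fit yields DC50.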

O=C1CCC(Nc2ccc(C3CCN([C@H]4CC[C@H](C(=O)N[C@H]5CC[C@H](Nc6ncc(F)c(-c7cccc(-c8ccc[nH]c8=O)c7)n6)CC5)CC4)CC3)c(F)c2)C(=O)N1 (stereo partly drawn) [Compound 396, trans-4-(4-(4-((2,6-dioxopiperidin-3-yl)amino)-2-fluorophenyl)piperidin-1-yl)-N-(trans-4-((5-fluoro-4-(3-(2-oxo-1,2-dihydropyridin-3-yl)phenyl)pyrimidin-2-yl)amino)cyclohexyl)cyclohexane-1-carboxamide] and O=C1CCC(Nc2ccc(C3CCN([C@H]4CC[C@H](NC(=O)[C@H]5CC[C@H](Nc6ncc(F)c(-c7cccc(-c8ccc[nH]c8=O)c7)n6)CC5)CC4)CC3)c(F)c2)C(=O)N1 (stereo partly drawn) [Compound 402, trans-(1r,4R)—N-((1r,4R)-4-(4-(4-((2,6-dioxopiperidin-3-yl)amino)-2-fluorophenyl)piperidin-1-yl)cyclohexyl)-4-((5-fluoro-4-(3-(2-oxo-1,2-dihydropyridin-3-yl)phenyl)pyrimidin-2-yl)amino)cyclohexane-1-carboxamide] cannot be ordered by DC50: < 500 nM for the first, < 500 nM for the second.

O=C1CCC(n2c(=O)oc3cc(N4CCN(CC5CCN(C(=O)[C@H]6CC[C@H](Nc7ncc(F)c(-c8cccc(-n9ccccc9=O)c8)n7)CC6)CC5)CC4)ccc32)C(=O)N1 (stereo partly drawn) [Compound 397, trans-3-(6-(4-((1-(4-((5-fluoro-4-(3-(2-oxopyridin-1(2H)-yl)phenyl)pyrimidin-2-yl)amino)cyclohexane-1-carbonyl)piperidin-4-yl)methyl)piperazin-1-yl)-2-oxobenzo[d]oxazol-3 (2H)-yl)piperidine-2,6-dione] and O=C1CCC(n2c(=O)oc3cc(N4CCN(CC5CCN(C(=O)[C@H]6CC[C@H](Nc7ncc(F)c(-c8cccc(-c9ccc[nH]c9=O)c8)n7)CC6)CC5)CC4)ccc32)C(=O)N1 (stereo partly drawn) [Compound 398, trans-3-(6-(4-((1-(4-((5-fluoro-4-(3-(2-oxo-1,2-dihydropyridin-3-yl)phenyl)pyrimidin-2-yl)amino)cyclohexane-1-carbonyl)piperidin-4-yl)methyl)piperazin-1-yl)-2-oxobenzo[d]oxazol-3 (2H)-yl)piperidine-2,6-dione] cannot be ordered by DC50: < 500 nM for the first, < 500 nM for the second.

Cn1nc(C2CCC(=O)NC2=O)c2ccc(N3CCN(CC4CCN(C(=O)[C@H]5CC[C@H](Nc6ncc(F)c(-c7cccc(-n8ccccc8=O)c7)n6)CC5)CC4)CC3)cc21 (stereo partly drawn) [Compound 399, 3-(6-(4-((1-(trans-4-((5-fluoro-4-(3-(2-oxopyridin-1(2H)-yl)phenyl)pyrimidin-2-yl)amino)cyclohexane-1-carbonyl)piperidin-4-yl)methyl)piperazin-1-yl)-1-methyl-1H-indazol-3-yl)piperidine-2,6-dione] and O=C1CCC(Nc2ccc(N3CCC(CC4CCN(C(=O)[C@H]5CC[C@H](Nc6ncc(F)c(-c7cccc(-n8ccccc8=O)c7)n6)CC5)CC4)CC3)c(F)c2)C(=O)N1 (stereo partly drawn) [Compound 400, trans-3-((3-fluoro-4-(4-((1-(4-((5-fluoro-4-(3-(2-oxopyridin-1(2H)-yl)phenyl)pyrimidin-2-yl)amino)cyclohexane-1-carbonyl)piperidin-4-yl)methyl)piperidin-1-yl)phenyl)amino)piperidine-2,6-dione] cannot be ordered by DC50: < 500 nM for the first, < 500 nM for the second.

O=C1CCC(Nc2ccc(C3CCN([C@H]4CC[C@H](NC(=O)[C@H]5CC[C@H](Nc6ncc(F)c(-c7cccc(-n8ccccc8=O)c7)n6)CC5)CC4)CC3)c(F)c2)C(=O)N1 (stereo partly drawn) [Compound 401, trans-(1r,4R)—N-((1r,4R)-4-(4-(4-((2,6-dioxopiperidin-3-yl)amino)-2-fluorophenyl)piperidin-1-yl)cyclohexyl)-4-((5-fluoro-4-(3-(2-oxopyridin-1(2H)-yl)phenyl)pyrimidin-2-yl)amino)cyclohexane-1-carboxamide] and O=C1CCC(Nc2ccc(N3CCC(N4CCC(C(=O)N[C@H]5CC[C@H](Nc6ncc(F)c(-c7cccc(-n8ccccc8=O)c7)n6)CC5)CC4)C(F)C3)c(F)c2)C(=O)N1 (some centres unmarked) [Compound 405, 1′-(4-((2,6-dioxopiperidin-3-yl)amino)-2-fluorophenyl)-3′-fluoro-N-((1r,4r)-4-((5-fluoro-4-(3-(2-oxopyridin-1(2H)-yl)phenyl)pyrimidin-2-yl)amino)cyclohexyl)-[1,4′-bipiperidine]-4-carboxamide] cannot be ordered by DC50: < 500 nM for the first, < 500 nM for the second.

O=C1CCC(Nc2ccc(N3CCC(OC4CCN(C(=O)[C@H]5CC[C@H](Nc6ncc(F)c(-c7cccc(-c8ccc[nH]c8=O)c7)n6)CC5)CC4)CC3)c(F)c2)C(=O)N1 (stereo partly drawn) [Compound 403, trans-3-((3-fluoro-4-(4-((1-(4-((5-fluoro-4-(3-(2-oxo-1,2-dihydropyridin-3-yl)phenyl)pyrimidin-2-yl)amino)cyclohexane-1-carbonyl)piperidin-4-yl)oxy)piperidin-1-yl)phenyl)amino)piperidine-2,6-dione] and O=C1CCC(Nc2ccc(N3CCC(CC4CCN(C(=O)[C@H]5CC[C@H](Nc6ncc(F)c(-c7cccc(-c8ccc[nH]c8=O)c7)n6)CC5)CC4)CC3)c(F)c2)C(=O)N1 (stereo partly drawn) [Compound 407, trans-3-((3-fluoro-4-(4-((1-(4-((5-fluoro-4-(3-(2-oxo-1,2-dihydropyridin-3-yl)phenyl)pyrimidin-2-yl)amino)cyclohexane-1-carbonyl)piperidin-4-yl)methyl)piperidin-1-yl)phenyl)amino)piperidine-2,6-dione] cannot be ordered by DC50: < 500 nM for the first, < 500 nM for the second.

First: Cn1nc(C2CCC(=O)NC2=O)c2ccc(N3CCN([C@H]4CC[C@H](NC(=O)[C@H]5CC[C@H](Nc6ncc(F)c(-c7cccc(-c8ccc[nH]c8=O)c7)n6)CC5)CC4)CC3)cc21 (stereo partly drawn) [Compound 404, trans-(1r,4R)—N-((1r,4R)-4-(4-(3-(2,6-dioxopiperidin-3-yl)-1-methyl-1H-indazol-6-yl)piperazin-1-yl)cyclohexyl)-4-((5-fluoro-4-(3-(2-oxo-1,2-dihydropyridin-3-yl)phenyl)pyrimidin-2-yl)amino)cyclohexane-1-carboxamide]
Second: O=C1CCC(Nc2ccc(N3CCC(N4CCC(C(=O)N[C@H]5CC[C@H](Nc6ncc(F)c(-c7cccc(-c8ccc[nH]c8=O)c7)n6)CC5)CC4)C(F)C3)c(F)c2)C(=O)N1 (some centres unmarked) [Compound 406, 1′-(4-((2,6-dioxopiperidin-3-yl)amino)-2-fluorophenyl)-3′-fluoro-N-((1r,4r)-4-((5-fluoro-4-(3-(2-oxo-1,2-dihydropyridin-3-yl)phenyl)pyrimidin-2-yl)amino)cyclohexyl)-[1,4′-bipiperidine]-4-carboxamide]
The DC50 of the first is higher: > 5000 nM for the first, < 500 nM for the second.

O=C1CCC(Nc2ccc(C3CCN(CC4CCN(C(=O)[C@H]5CC[C@H](Nc6ncc(F)c(-c7cccc(-c8ccc[nH]c8=O)c7)n6)CC5)CC4)CC3(F)F)c(F)c2)C(=O)N1 (stereo partly drawn) [Compound 408, trans-3-[4-[3,3-difluoro-1-[[1-[4-[[5-fluoro-4-[3-(2-oxo-1H-pyridin-3-yl)phenyl]pyrimidin-2-yl]amino]cyclohexanecarbonyl]-4-piperidyl]methyl]-4-piperidyl]-3-fluoro-anilino]piperidine-2,6-dione] and O=C1CCC(Nc2ccc(C3CCN(CC4(O)CCN(C(=O)[C@H]5CC[C@H](Nc6ncc(F)c(-c7cccc(-n8ccccc8=O)c7)n6)CC5)CC4)CC3)c(F)c2)C(=O)N1 (stereo partly drawn) [Compound 409, trans-3-((3-fluoro-4-(1-((1-(-4-((5-fluoro-4-(3-(2-oxopyridin-1(2H)-yl)phenyl)pyrimidin-2-yl)amino)cyclohexane-1-carbonyl)-4-hydroxypiperidin-4-yl)methyl)piperidin-4-yl)phenyl)amino)piperidine-2,6-dione] cannot be ordered by DC50: < 500 nM for the first, < 500 nM for the second.

Compared with O=C1CCC(Nc2ccc(N3CCC(O)(CN4CCN(C(=O)[C@H]5CC[C@H](Nc6ncc(F)c(-c7cccc(-n8ccccc8=O)c7)n6)CC5)CC4)CC3)c(F)c2)C(=O)N1 (stereo partly drawn) [Compound 410, trans-3-((3-fluoro-4-(4-((4-(4-((5-fluoro-4-(3-(2-oxopyridin-1(2H)-yl)phenyl)pyrimidin-2-yl)amino)cyclohexane-1-carbonyl)piperazin-1-yl)methyl)-4-hydroxypiperidin-1-yl)phenyl)amino)piperidine-2,6-dione], O=C1CCC(Nc2ccc(N3CCN([C@H]4CC[C@H](C(=O)N[C@H]5CC[C@H](Nc6ncc(F)c(-c7cccc(N8CCOC8=O)c7)n6)CC5)CC4)CC3)c(F)c2)C(=O)N1 (stereo partly drawn) [Compound 411, trans-(1r,4R)-4-(4-(4-((2,6-dioxopiperidin-3-yl)amino)-2-fluorophenyl)piperazin-1-yl)-N-((1r,4R)-4-((5-fluoro-4-(3-(2-oxooxazolidin-3-yl)phenyl)pyrimidin-2-yl)amino)cyclohexyl)cyclohexane-1-carboxamide] is higher in DC50: < 500 nM for the first, > 5000 nM for the second.

O=C1CC[C@@H](Nc2ccc(N3CCN([C@H]4CC[C@H](C(=O)N[C@H]5CC[C@H](Nc6ncc(F)c(-c7cccc(N8CCCCC8=O)c7)n6)CC5)CC4)CC3)c(F)c2)C(=O)N1 [Compound 412, trans-(1r,4R)-4-(4-(4-((2,6-dioxopiperidin-3-yl)amino)-2-fluorophenyl)piperazin-1-yl)-N-((1r,4R)-4-((5-fluoro-4-(3-(2-oxopiperidin-1-yl)phenyl)pyrimidin-2-yl)amino)cyclohexyl)cyclohexane-1-carboxamide] was tested, and the DC50 was < 500 nM.
